Results on eleven molecules are retold here after US10189810B2, “Pyrazolyl-substituted pyridone compounds as serine protease inhibitors” (VERSEON CORPORATION, priority 2014, dated 2019).

One assay has as its target T1, Human KLKB1 protein (Homo sapiens, UniProt P03952).
T1 construct: purchased Enzyme Research Labs
Put plainly: KLKB1 kallikrein protease inhibition assay (chromogenic substrate S-2302). In kind it is biochemical. The settings on record: 3 nM KLKB1, 250 μM S-2302, 10 min pre-incubation, RT, read at 405 nm. The method, then:
The KLKB1 kallikrein activity reported herein (e.g., Table A) was obtained as follows. Human KLKB1 protein was obtained from Enzyme Research Labs. The chromogenic substrate S-2302 was obtained from DiaPharma. KLKB1 was assayed in buffer containing 0.05 M Tris (pH 7.4), 0.01 M NaCl and 0.2% w/v PEG-8000. The final concentration of enzyme used was 3 nM KLKB1. The final concentration of substrate used was 250 μM S-2302 for KLKB1. All assays were performed in 96-well microtiter plates at room temperature (RT). […] The plate was read at 10 minutes after substrate addition. The IC50 was calculated by plotting the percent (%) inhibition against compound concentration and fitting the data to a constrained four parameter sigmoidal curve, as known in the art.

The next assay addresses T2, Human thrombin (Homo sapiens, UniProt P00734).
T2 construct: Thrombin (fIIa, the active form of prothrombin) is another serine protease; purchased Haematologic Technologies Inc
Kind of assay: thrombin protease inhibition assay (chromogenic substrate S-2238). Type of assay: biochemical. The settings on record: 3 nM thrombin, 125 μM S-2238, 10 min pre-incubation, RT, read at 405 nm. The method, then:
The thrombin activity reported herein (e.g., Table A) was obtained as follows. […] Thrombin was assayed in buffer containing 0.05 M Tris (pH 7.4), 0.015 M NaCl and 0.01% PEG-8000. The final concentration of enzyme used was 3 nM thrombin. […] All assays were performed in 96-well microtiter plates at room temperature (RT). […] Inhibitor IC50 values were determined by adding test compound as ten point, three-fold serial dilutions in buffer solution, as known in the art. The plate was read at 10 minutes after substrate addition. The IC50 was calculated by plotting the percent (%) inhibition against compound concentration and fitting the data to a constrained four parameter sigmoidal curve, as known in the art.

T1 sequence (P03952 391-638 limits assumed): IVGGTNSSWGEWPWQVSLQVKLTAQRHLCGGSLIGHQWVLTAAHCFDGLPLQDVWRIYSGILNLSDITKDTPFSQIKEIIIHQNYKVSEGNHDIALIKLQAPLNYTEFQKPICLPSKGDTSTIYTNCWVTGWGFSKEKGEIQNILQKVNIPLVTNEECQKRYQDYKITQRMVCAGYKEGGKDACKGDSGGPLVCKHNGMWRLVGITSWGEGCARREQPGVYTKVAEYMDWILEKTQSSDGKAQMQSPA
T1 sequence (P03952 20-390 partner limits assumed): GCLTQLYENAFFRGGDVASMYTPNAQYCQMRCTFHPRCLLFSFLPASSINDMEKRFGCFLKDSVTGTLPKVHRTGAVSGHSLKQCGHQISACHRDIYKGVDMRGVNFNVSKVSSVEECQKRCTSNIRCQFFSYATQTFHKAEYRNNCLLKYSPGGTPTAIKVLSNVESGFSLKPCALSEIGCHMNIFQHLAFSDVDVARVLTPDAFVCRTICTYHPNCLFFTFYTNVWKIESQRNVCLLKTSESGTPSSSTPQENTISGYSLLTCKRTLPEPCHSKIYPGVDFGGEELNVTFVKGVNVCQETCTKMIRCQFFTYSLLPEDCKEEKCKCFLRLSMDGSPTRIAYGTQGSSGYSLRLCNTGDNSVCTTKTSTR

Turning to `CC(C)(C)C(=O)n1nc(-c2ccn(Cc3ccccn3)c(=O)c2)cc1NCc1ccc(Cl)s1` [Entry 10, 4-(5-[(5-chlorothiophen-2-yl)methyl]amino-1-(2,2-dimethylpropanoyl)-1H-pyrazol-3-yl)-1-(pyridin-2-ylmethyl)-1,2-dihydropyridin-2-one], the IC50 against Human KLKB1 protein was 1 to 10 µM; against Human thrombin it was less than 0.1 µM.

In turn, `CC(C)(C)C(=O)n1nc(-c2ccc(=O)[nH]c2)cc1NCc1ccc(Cl)s1` [Entry 31, 5-(5-[(5-chlorothiophen-2-yl)methyl]amino-1-(2,2-dimethylpropanoyl)-1H-pyrazol-3-yl)-1,2-dihydropyridin-2-one] had a 50% inhibitory concentration (IC50) against Human KLKB1 protein of 10 to 100 µM.

At Human KLKB1 protein, `CC(C)(C)C(=O)n1nc(-c2cccc(=O)n2CC(=O)N2CCOCC2)cc1NCc1ccc(Cl)s1` [Entry 45, 6-(5-[(5-chlorothiophen-2-yl)methyl]amino-1-(2,2-dimethylpropanoyl)-1H-pyrazol-3-yl)-1-[2-(morpholin-4-yl)-2-oxoethyl]-1,2-dihydropyridin-2-one] registered an IC50 greater than 100 µM.

In the case of `CC(C)(C)C(=O)n1nc(-c2ccn(Cc3cccnc3)c(=O)c2)cc1NCc1ccc(Cl)s1` [Entry 11, 4-(5-[(5-chlorothiophen-2-yl)methyl]amino-1-(2,2-dimethylpropanoyl)-1H-pyrazol-3-yl)-1-(pyridin-3-ylmethyl)-1,2-dihydropyridin-2-one], the IC50 against Human KLKB1 protein is 0.1 to 1 µM; against Human thrombin, less than 0.1 µM.

For the molecule `O=C(Cn1ccc(-c2cc(NCc3ccc(Cl)s3)n(C(=O)c3ccoc3)n2)cc1=O)N1CCOCC1` [Entry 20, 4-(5-[(5-chlorothiophen-2-yl)methyl]amino-1-(furan-3-carbonyl)-1H-pyrazol-3-yl)-1-[2-(morpholin-4-yl)-2-oxoethyl]-1,2-dihydropyridin-2-one], the IC50 on Human KLKB1 protein lay within 1 to 10 µM; against Human thrombin, 0.1 to 1 µM.

With `CC(C)(C)C(=O)n1nc(-c2cc(Br)c[nH]c2=O)cc1NCc1ccc(Cl)s1` [Entry 39, 5-bromo-3-(5-[(5-chlorothiophen-2-yl)methyl]amino-1-(2,2-dimethylpropanoyl)-1H-pyrazol-3-yl)-1,2-dihydropyridin-2-one], the IC50 against Human KLKB1 protein was 10 to 100 µM; at Human thrombin, less than 0.1 µM.

`O=C(c1ccoc1)n1nc(-c2ccn(Cc3ccccn3)c(=O)c2)cc1NCc1ccc(Cl)s1` [Entry 18, 4-(5-[(5-chlorothiophen-2-yl)methyl]amino-1-(furan-3-carbonyl)-1H-pyrazol-3-yl)-1-(pyridin-2-ylmethyl)-1,2-dihydropyridin-2-one]: the IC50 against Human KLKB1 protein is 0.1 to 1 µM; on Human thrombin, less than 0.1 µM.

The molecule `CC(C)(C)C(=O)n1nc(-c2cccc(=O)n2Cc2ccccn2)cc1NCc1ccc(Cl)s1` [Entry 44, 6-(5-[(5-chlorothiophen-2-yl)methyl]amino-1-(2,2-dimethylpropanoyl)-1H-pyrazol-3-yl)-1-(pyridin-2-ylmethyl)-1,2-dihydropyridin-2-one] gave an IC50 on Human KLKB1 protein greater than 100 µM.

Molecule `CC(C)(C)C(=O)n1nc(-c2ccn(CC(=O)N3CCOCC3)c(=O)c2)cc1NCc1ccc(Cl)s1` [Entry 12, 4-(5-[(5-chlorothiophen-2-yl)methyl]amino-1-(2,2-dimethylpropanoyl)-1H-pyrazol-3-yl)-1-[2-(morpholin-4-yl)-2-oxoethyl]-1,2-dihydropyridin-2-one] registered an IC50 on Human KLKB1 protein of 10 to 100 µM.

Turning to `CC(C)(C)C(=O)n1nc(-c2cccc(=O)[nH]2)cc1NCc1ccc(Cl)s1` [Entry 43, 6-(5-[(5-chlorothiophen-2-yl)methyl]amino-1-(2,2-dimethylpropanoyl)-1H-pyrazol-3-yl)-1,2-dihydropyridin-2-one], at Human KLKB1 protein, the IC50 is 1 to 10 µM.

Take `CC(C)(C)C(=O)n1nc(-c2ccc(=O)n(CC(=O)N3CCOCC3)c2)cc1NCc1ccc(Cl)s1` [Entry 32, 5-(5-[(5-chlorothiophen-2-yl)methyl]amino-1-(2,2-dimethylpropanoyl)-1H-pyrazol-3-yl)-1-[2-(morpholin-4-yl)-2-oxoethyl]-1,2-dihydropyridin-2-one]: the concentration for half-maximal inhibition (IC50) on Human KLKB1 protein was greater than 100 µM.

For orientation: IC50 means the concentration that inhibits the measured activity by half. Lower therefore signals inhibition by little substance.
